Among the data in US10195158B2, “Bioactive oil based polyesteramide nanofibers for wound healing applications” (Council of Scientific and Industrial Research, priority 2014, dated 2019) are MIC values, retold here.

Values after ≈ are worked out from the molar mass of the structure shown.

In this test the test system is Staphylococcus aureus. Kind of test: Minimum inhibitory concentration of amoxicillin. Format: cell-based. The settings on record: susceptible bacteria.

As to `CC1(C)S[C@@H]2[C@H](NC(=O)[C@H](N)c3ccc(O)cc3)C(=O)N2[C@H]1C(=O)O` [Amoxicillin], the MIC lay in the range of 0.05 to 8 µg/mL (≈ 0.137 to 21.9 µM).

The term MIC denotes the lowest concentration that inhibits growth of the organism.
